Assay results from BigSolDB 2.1.

CC1(C)CCC2=C(O1)c1ccccc1C(=O)C2=O
solubility (mole fraction)
Settings | 298.15 K | 303.15 K | 308.15 K | 313.15 K | 318.15 K
in acetone | 0.0205 | 0.0216 | 0.0245 | 0.0296 | 0.0342
in acetonitrile | 0.018 | 0.0209 | 0.0227 | 0.0269 | 0.0325
in ethanol | 0.00499 | 0.00595 | 0.00664 | 0.00909 | 0.0134
in ethyl acetate | 0.00853 | 0.00936 | 0.0104 | 0.0121 | 0.0165
in isopropanol | 0.00376 | 0.00432 | 0.00528 | 0.00754 | 0.0111
in methanol | 0.0054 | 0.00654 | 0.0076 | 0.0101 | 0.0153
in n-butanol | 0.00743 | 0.00895 | 0.0108 | 0.0142 | 0.0203
in n-propanol | 0.00669 | 0.00793 | 0.00969 | 0.0146 | 0.0203
in propylene glycol | 0.00306 | 0.00308 | 0.0037 | 0.00531 | 0.00724
in sec-butanol | 0.00565 | 0.00671 | 0.0079 | 0.0104 | 0.0162
in water | 2.85e-06 | 3.72e-06 | 4.46e-06 | 5.26e-06 | 6.12e-06
